Source: ChEMBL document CHEMBL4765480 (J Med Chem, 2021)
In brackets after ≈: the same amount, converted by molar mass.

Tests used:
[1] = AUC (0 to 24 hrs) in mouse at 10 mg/kg, po; type: ADME, organism-based; design: time < 24 hr, route oral, dose 10 mg/kg; details: in vivo
[2] = Oral bioavailability in mouse at 10 mg/kg; type: ADME, organism-based; details: in vivo
[3] = Cmax in mouse at 10 mg/kg, po; type: ADME, organism-based; design: route oral, dose 10 mg/kg; details: in vivo
[4] = Clearance in mouse at 10 mg/kg, po; type: ADME, organism-based; details: in vivo
[5] = Volume of distribution at steady state in mouse at 10 mg/kg, po; type: ADME, organism-based; details: in vivo
[6] = Stability in human liver microsomes assessed as parent compound remaining after 10 mins; type: ADME, Microsome; details: read-out: Stabilty
[7] = Stability in mouse liver microsomes assessed as parent compound remaining after 10 mins; type: ADME, Microsome; details: read-out: Stabilty
[8] = Stability in rat liver microsomes assessed as parent compound remaining after 10 mins; type: ADME, Microsome; details: read-out: Stabilty
[9] = Aqueous solubility of compound at pH 6.5; type: physicochemical; details: aqueous solution
[10] = Clearance in rat at 10 mg/kg, po; type: ADME, organism-based; details: in vivo
[11] = Cmax in dog at 10 mg/kg, po; type: ADME, organism-based, Canis lupus familiaris; design: route oral, dose 10 mg/kg; details: in vivo
[12] = AUC (0 to 24 hrs) in cynomolgus monkey at 7 mg/kg, po; type: ADME, organism-based, Macaca fascicularis; design: time < 24 hr, route oral, dose 7 mg/kg; details: in vivo
[13] = AUC (0 to 24 hrs) in dog at 10 mg/kg, po; type: ADME, organism-based, Canis lupus familiaris; design: time < 24 hr, route oral, dose 10 mg/kg; details: in vivo
[14] = AUC (0 to 24 hrs) in rat at 10 mg/kg, po; type: ADME, organism-based; design: time < 24 hr, route oral, dose 10 mg/kg; details: in vivo
[15] = Half life in dog liver microsomes; type: ADME, Canis lupus familiaris, Microsome
[16] = Volume of distribution at steady state in cynomolgus monkey at 7 mg/kg, po; type: ADME, organism-based, Macaca fascicularis; details: in vivo
[17] = Half life in rat liver microsomes; type: ADME, Microsome
[18] = Volume of distribution at steady state in rat at 10 mg/kg, po; type: ADME, organism-based; details: in vivo
[19] = Volume of distribution at steady state in dog at 10 mg/kg, po; type: ADME, organism-based, Canis lupus familiaris; details: in vivo
[20] = Cmax in rat at 10 mg/kg, po; type: ADME, organism-based; design: route oral, dose 10 mg/kg; details: in vivo
[21] = Oral bioavailability in dog at 10 mg/kg; type: ADME, organism-based, Canis lupus familiaris; details: in vivo
[22] = Clearance in dog at 10 mg/kg, po; type: ADME, organism-based, Canis lupus familiaris; details: in vivo
[23] = Oral bioavailability in rat at 10 mg/kg; type: ADME, organism-based; details: in vivo
[24] = Half life in human liver microsomes; type: ADME, Microsome
[25] = Cmax in cynomolgus monkey at 7 mg/kg, po; type: ADME, organism-based, Macaca fascicularis; design: route oral, dose 7 mg/kg; details: in vivo
[26] = Half life in monkey liver microsomes; type: ADME, Macaca mulatta, Microsome; details: rhesus monkey
[27] = Oral bioavailability in cynomolgus monkey at 7 mg/kg; type: ADME, organism-based, Macaca fascicularis; details: in vivo
[28] = Half life in mouse liver microsomes; type: ADME, Microsome
[29] = Clearance in cynomolgus monkey at 7 mg/kg, po; type: ADME, organism-based, Macaca fascicularis; details: in vivo

SMILES	AUC(0-t) at 24 h [1]	bioavailability [2]	Cmax [3]	CL/F [4]	Vdss [5]	remaining at 10 min [6]	remaining at 10 min [7]	remaining at 10 min [8]	other results
[2H]C([2H])([2H])NC(=O)c1nnc(NC(=O)C2CC2)cc1Nc1cccc(-c2cnc(C(=O)N(C)C)cn2)c1OC	19 µM·h	43%	7.8 µM	7.6 mL/min/kg	1.5 L/kg				
[2H]C([2H])([2H])NC(=O)c1nnc(NC(=O)C2CC2)cc1Nc1cccc(-c2ccncn2)c1OC						48%	3%	3%	
[2H]C([2H])([2H])NC(=O)c1nnc(NC(=O)C2CC2)cc1Nc1cccc(-c2cnccn2)c1OC						58%	1%	1%	
[2H]C([2H])([2H])NC(=O)c1nnc(NC(=O)C2CC2)cc1Nc1cccc(-c2cccnn2)c1OC						60%	0%	8%	
[2H]C([2H])([2H])NC(=O)c1cnc(NC(=O)C2CC2)cc1Nc1cccc(-c2ncccn2)c1OC									solubility [9]: 32 µg/mL (≈ 75.9 µM)
[2H]C([2H])([2H])NC(=O)c1nnc(NC(=O)C2CC2)cc1Nc1cccc(-c2ncc(C(C)(C)O)cn2)c1OC									solubility [9]: 14 µg/mL (≈ 29.1 µM)
[2H]C([2H])([2H])NC(=O)c1nnc(NC(=O)C2CC2)cc1Nc1cccc(-c2ncccn2)c1OC	15 µM·h	31%	5.4 µM	7.9 mL/min/kg	2.3 L/kg	100%	78%	77%	solubility [9]: < 1 µg/mL
[2H]C([2H])([2H])NC(=O)c1nnc(NC(=O)C2CC2)cc1Nc1cccc(-c2cnc(C(C)(C)O)cn2)c1OC	26 µM·h	41%	6.1 µM	5.3 mL/min/kg	3.4 L/kg	95%	99%	90%	
[2H]C([2H])([2H])NC(=O)c1nnc(NC(=O)C2CC2)cc1Nc1cccc(-c2ccccn2)c1OC						79%	42%	34%	
[2H]C([2H])([2H])NC(=O)c1cnc(NC(=O)C2CC2)cc1Nc1cccc(-c2ncc(F)cn2)c1OC [BMS-986202]	65 µM·h	62%	13 µM	3 mL/min/kg	1.1 L/kg				CL/F [10]: 3.6 mL/min/kg; Cmax [11]: 14 µM; AUC(0-t) at 24 h [12]: 130 µM·h; AUC(0-t) at 24 h [13]: 126 µM·h; AUC(0-t) at 24 h [14]: 77 µM·h; half-life [15]: 1.48 h; Vdss [16]: 7 L/kg; half-life [17]: > 2 h; Vdss [18]: 1.1 L/kg; Vdss [19]: 1.5 L/kg; Cmax [20]: 13 µM; bioavailability [21]: 100%; CL/F [22]: 1.8 mL/min/kg; bioavailability [23]: 72%; half-life [24]: > 2 h; Cmax [25]: 11 µM; half-life [26]: > 2 h; bioavailability [27]: 100%; half-life [28]: > 2 h; CL/F [29]: 2.3 mL/min/kg
[2H]C([2H])([2H])NC(=O)c1nnc(NC(=O)C2CC2)cc1Nc1cccc(-c2ncn(C)n2)c1OC [DEUCRAVACITINIB]						98%	89%	100%	
